Consider 6 compounds from patent US6995283B2, “Benzophenones as inhibitors of reverse transcriptase” (priority 2001, dated 2006).

A short description of one series: Solubility. The format is physicochemical. Here is the method:
A stir bar was put in the vial. The vials were closed with caps and placed on stir plate. […] After equilibration, the samples were centrifuged. An accurate aliquot of clear solution was transferred to a HPLC vial by micropipette. The solubility was determined by HPLC with UV detector and against standard.

Series [1] in a line: Pharmacokinetic studies in male beagle dogs. In kind it is in vivo, beagle dog. Here is the method:
Compound 34 (634A in tables and on plots) was dosed as a solid as well as in solution form to male beagle dogs according to the following protocol. Plasma samples were analyzed using the following methods:
Blood samples from the test animals were drawn at periodic intervals, before, and after administration of the test articles. The samples were dispensed into chilled (˜+4° C.) blood tubes containing EDTA anticoagulant which were stored “on ice” (˜+4° C.) prior to centrifugation and separation of the plasma fractions. The plasma samples were transferred to frozen storage (−20° C.) within 30 minutes of blood sampling.
The plasma samples were thawed at room temperature, vortex-mixed for 10 seconds, and 100 μL aliquots transferred to 96-well micro-plates. […]
The supernatant fractions of the wells were transferred to a fresh micro-plate and then evaporated to dryness at 37° C. under a stream of (O2-free) nitrogen. The well residues were reconstituted in 100 μL volumes of acetonitrile:water:acetic acid (40:59.9:0.1 v/v/v) and 20 μL volumes were analyzed by HPLC-MS-MS. […]
The measurement of signal peaks areas, calibration and quantification were carried out using the Turbo-Quan V1.5 (Sciex Inc.) data acquisition and processing software (DAQ) suite. […]

Series [2] is described as follows: Oral bioavailability in male Sprague-Dawley rats. The format is in vivo, Sprague-Dawley (CD) rat. The settings on record: for AUC(0-inf): rat, plasma. Here is the method:
Methods used were generally as described in Example 53, with the following modifications: Sample Collection—In addition to anticoagulant (EDTA), an enzyme inhibitor cocktail containing 50 μL of 100 mM AEBSF (4-(2-aminoethyl)benzenessulfonylfluoride HCl, CalBioChem, cat. no. 101500); 200 mM Benzamide(CalBioChem, cat. no. 199001); and 200 mM EACA (Epislon Amino-n-caproic acid, CalBioChem cat. no. 1381) in FTA Hemaglutionation Buffer (Becton Dickson, cat. no. 4311248) per 1 mL of blood was added to rat blood samples at the time of collection.
HPLC-MS-MS Conditions—Chromatography was performed on a Phenomenex Aqua C18 HPLC Mercury Cartridge (3-micron particle size, 20 mm×2 mm id) or Luna C18 column (50×2 mm).

A further series deals with HIV-1 wild type virus. The series is described as follows: Anti-HIV activity of parent compounds, wild type virus (Table 1; HeLa-CD4-LTR-β-gal cell assay). The format is cell-based. To be noted: Human immunodeficiency virus 1, read-out: Wt. Here is the method: (§1) The HeLa cell assay was performed according to a modifcation of Kimpton J. and Emerman M., Detection of replication-competent and pseudotyped human inmmunodeficiency virus with a sensitive cell line on the basis of activation of an integrated β-galactosidase gene, J. Virol. 66:2232-2239 (1992), in which HIV-1 infection is detected by the activation of an HIV-LTR driven β-galactosidase reporter that is integrated into the genome of a CD4^+ HeLa cell line. Quantitation of β-galactosidase is achieved by measuring the activation of a chemiluminescent substrate (Tropix). The concentration of each compound required to inhibit 50% (IC50) of the HIV-1 induced β-galactosidase signal, relative to untreated controls, was determined for each isogenic, recombinant virus.
(§2) HeLa-CD4-LTR-β-gal cells are propagated in DMEM containing 10% fetal bovine serum+0.2 mg/ml geneticin+0.1 mg/ml hygromycin B. Cells are split by standard trypsinization when confluency reaches 80% (roughly every 2 to 3 days).
(§3) DNA encoding the HIV-1 reverse transcriptase was subcloned from a M13 phage into a general shuttle vector, pBCSK+, as a ˜1.65 kbp EcoRI/HindIII ended DNA fragment. The HIV DNA insert of the resulting plasmid, pRT2, was completely sequenced on both strands prior to use in site directed mutagenesis experiments. Specific amino acid replacements were made using Stratagene Quick Change reagents and mutagenic oligonucleotides from Oligos. […]
(§4) Mutant HIV-1 strains were isolated by a modified Recombinant Virus Assay (Kellamn P. and Larder B., Recombinant virus assay: a rapid, phenotypic assay for assessment of drug susceptibility of human immunodeficiency virus type 1 isolates, Antimicrobial Agents and Chemotherapy, 38:23-30,1994). […] Transfected cell cultures were expanded and monitored until syncitia formation and CPE were extensive. […]
(§5) HIV-1 virus stocks must be titered in the MAGI assay system to establish the appropriate infecting dose. The endpoint for this assay is relative light units (RLUs), and titer is recorded as RLUs/ml. […]

The test system of a further series is Nev-R mutant virus. Briefly: Anti-HIV activity of parent compounds, Nev-R mutant virus (Table 1; HeLa-CD4-LTR-β-gal cell assay). In kind it is cell-based, HIV-1. To be noted: Human immunodeficiency virus 1, read-out: Nev-R. Here is the method:
as §1, §2, §3, §4, §5

Converted amounts (≈) assume the structure as drawn. Counter-ions that a name gives are not always drawn. Like-named read-outs stand apart in the source and are kept apart here.

As a reminder, the solubility is how much of the substance goes into solution per volume. `CCC(=O)NS(=O)(=O)c1ccc(NC(=O)COc2ccc(Cl)cc2C(=O)c2cc(Cl)cc(C#N)c2)c(C)c1.[Ca]` [Calcium salt, 2-[4-chloro-2-(3-chloro-5-cyanobenzoyl)phenoxy]-N-{2-methyl-4-[(propionylamino)sulfonyl]phenyl}acetamide, Calcium Salt, Form 2]: the solubility in the series “Solubility” (water, Crystal Form 2) stood at 0.7 mg/mL.

Take `CCC(=O)NS(=O)(=O)c1ccc(NC(=O)COc2ccc(Cl)cc2C(=O)c2cc(Cl)cc(C#N)c2)c(C)c1` [Compound 34, 2-[4-chloro-2-(3-chloro-5-cyanobenzoyl)phenoxy]-N-{2-methyl-4-[(propionylamino)sulfonyl]phenyl}acetamide, Sodium Salt]: the “appearance of active inhibitor compound 40 in plasma after administration” value in series [1] and in series [2] was “appears in the plasma” in each case. In addition, the “bioavailability after oral administration (in words)” value in series [1] (oral) is listed as “excellent bioavailability”; in series [2] (oral, in comparison to the parent compound 40) it was “improved bioavailability”. The solubility in “Solubility” (water, thermodynamic from solid, water, Amorphous, read-out: Solubility) was more than 100 mg/mL; in the series “Solubility” (water, thermodynamic from solid, water, Crystal Form 1, read-out: Solubility), 92 mg/mL; in the series “Solubility” (water, thermodynamic from solid, water, Crystal Form 4, read-out: Solubility) it was 2.5 mg/mL; in “Solubility” (water, thermodynamic from solid, water, Crystal Form 9, read-out: Solubility), more than 100 mg/mL; in “Solubility” (water, thermodynamic from solid, water, Crystal Form 10, read-out: Solubility), more than 100 mg/mL; in “Solubility” (water, thermodynamic from solid, water, Crystal Form 12, read-out: Solubility), more than 100 mg/mL.

On to `Cc1cc(S(N)(=O)=O)ccc1NC(=O)COc1ccc(Cl)cc1C(=O)c1cc(Cl)cc(C#N)c1` [Compound 40, N-[4-(aminosulfonyl)-2-methylphenyl]-2-[4-chloro-2-(3-chloro-5-cyanobenzoyl)phenoxy]acetamide], for which the results for the IC50 in the series with HIV-1 wild type virus and in the series with Nev-R mutant virus were 0.5 to 1.8 nM and 0.4 to 1.2 nM, respectively. For the same compound, the “Mean Exposures of 40 Fapp” value in series [2] (free acid, Amorph., PO (soln) 1 mg/kg, DMSO:Tween-80:5% Mannitol (20:0.1:79.9)) was determined as 7%. For the same compound, the AUC(0-inf) in series [2] (free acid, Amorph., IV 1 mg/kg, PEG400:Solutol:Water (30:20:50), read-out: Mean Exposures of 40 AUC0-∞) came out at 1740 ± 363 ng·h/mL; in series [2] (free acid, Amorph., PO (soln) 1 mg/kg, DMSO:Tween-80:5% Mannitol (20:0.1:79.9), n = 1, read-out: Mean Exposures of 40 AUC0-∞), 128 ng·h/mL. In the series “Solubility” (fassgf or other biorelevant, thermodynamic from solid, SIF, Crystal Form 1, read-out: Solubility), the solubility is 0.0029 mg/mL (≈ 5.59 µM).

Take `CCC(=O)NS(=O)(=O)c1ccc(NC(=O)COc2ccc(Cl)cc2C(=O)c2cc(Cl)cc(C#N)c2)c(C)c1` [Compound 41, 2-[4-chloro-2-(3-chloro-5-cyanobenzoyl)phenoxy]-N-{2-methyl-4-[(propionylamino)sulfonyl]phenyl}acetamide]: the “solubility (in words)” value in the series “Solubility” (in comparison with compound 40) is given as “improved solubility”.

Take `Cc1cc(S(N)(=O)=O)ccc1NC(=O)COc1ccc(Cl)cc1C(=O)c1cc(C#N)cc(C(F)(F)F)c1` [Compound 58]: the IC50 stood at 2.4 nM in the series on HIV-1 wild type virus and 0.9 nM in the series on Nev-R mutant virus.

Consider `Cc1cc(S(N)(=O)=O)ccc1NC(=O)COc1ccc(Cl)cc1C(=O)c1cc(F)cc(C(F)(F)F)c1` [Compound 71], for which the IC50 in the series with HIV-1 wild type virus was 0.1 to 28 nM; in the series with Nev-R mutant virus, 0.4 to 14 nM.
